Experimental data as given in patent publication US20210047278A1, “E3 UBIQUITIN LIGASE AGONISTS, PHARMACEUTICAL COMPOSITIONS INCLUDING THE E3 UBIQUITIN LIGASE AGONISTS, RELATED METHODS OF USE” (FRED HUTCHINSON CANCER RESEARCH CENTER, priority 2018, published 2021).
Where two headings read alike, the source gives them in different places.

Tests used:
Format in all cases: binding
[1] = target: T1, FBW7^ARG (RLFBW7) alone (Homo sapiens, UniProt Q969H0, R505L); test: Counterscreen 1 ALPHAscreen with FBW7^ARG alone (CSRUN1/DCSRUN1); details: dose-response counterscreen; for Emax: read-out: RLFBW7 ACT DCSRUN1 Averaged Max % Response
T1 construct: GST (TEV site and flexible linker) (N, cleaved yes); made in house; host or cells: SF9 insect cells (baculovirus)
Method in brief: (§1)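 ALPHAscreen counterscreens, read on ENVISION, omitting either FBW7^ARG or the phosphorylated cyclin E peptide to flag general ALPHAscreen agonists. Compounds tested in triplicate as 10-point 3-fold dilutions up to approximately 87 μM. Activation expressed relative to WT-FBW7+pCycE, with 10% set as positive.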

[2] = target: T2, FBW7^ARG+pCycE (Homo sapiens, UniProt Q969H0, R505L); test: FBW7^ARG-cyclin E agonist ALPHAscreen (primary PRUN, confirmation CRUN1, dose-response DRUN); details: for EC50 / Emax: DRUN dose-response; for Emax: relative to WT-FBW7+pCycE, read-out: FBW7 ACT Averaged Max % Response
T2 construct: GST (TEV site and flexible linker) (N, cleaved yes); made in house; host or cells: SF9 insect cells (baculovirus)
Method in brief: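 ALPHAscreen agonist assay: His-tagged FBW7 R505L on Ni-chelate acceptor beads (25 nM FBW7, 25 nM biotinylated phospho-cyclin E peptide, 10 µg/ml beads), streptavidin donor beads, ALPHA signal read. Primary and confirmation runs at 26.1 μM; dose-response as 10-point 3-fold series to ~87 μM, in triplicate; activation relative to WT-FBW7+pCycE.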

[3] = system: pCycE alone; test: Counterscreen 2 ALPHAscreen with cyclin E phosphopeptide alone (CSRUN2/DCSRUN2); details: for CyCEP ACT DCSRUN2 Averaged Max % Response: activation relative to WT-FBW7+pCycE, averaged maximum; for EC50: dose-response, triplicate, 10 point 3-fold dilutional series, read-out: CyCEP ACT DCSRUN2 Final EC50
Method in brief: as §1

[4] = read-out: RLFBW7 ACT DCSRUN1 Final EC50
[5] = raw curve fit, read-out: FBW7 ACT EC50 Curve Fit Raw, Molar
[6] = triplicate, 10 point 3-fold dilution, max approx. 87 μM, read-out: FBW7 ACT Final EC50, Molar
[7] = confirmation assay, triplicate, single concentration 26.1 μM, read-out: FBW7 ACT CRUN1 Avg % Response and Stdev
[8] = primary screen, 1536-well, 26.1 μM, FBW7^ARG + pCycE degron peptide, high control wt-FBW7+pCycE, read-out: FBW7 ACT PRUN % Response
[9] = raw curve fit, read-out: RLFBW7 ACT DCSRUN1 EC50 Curve Fit Raw

T2 sequence (Q969H0 64-707 R505L): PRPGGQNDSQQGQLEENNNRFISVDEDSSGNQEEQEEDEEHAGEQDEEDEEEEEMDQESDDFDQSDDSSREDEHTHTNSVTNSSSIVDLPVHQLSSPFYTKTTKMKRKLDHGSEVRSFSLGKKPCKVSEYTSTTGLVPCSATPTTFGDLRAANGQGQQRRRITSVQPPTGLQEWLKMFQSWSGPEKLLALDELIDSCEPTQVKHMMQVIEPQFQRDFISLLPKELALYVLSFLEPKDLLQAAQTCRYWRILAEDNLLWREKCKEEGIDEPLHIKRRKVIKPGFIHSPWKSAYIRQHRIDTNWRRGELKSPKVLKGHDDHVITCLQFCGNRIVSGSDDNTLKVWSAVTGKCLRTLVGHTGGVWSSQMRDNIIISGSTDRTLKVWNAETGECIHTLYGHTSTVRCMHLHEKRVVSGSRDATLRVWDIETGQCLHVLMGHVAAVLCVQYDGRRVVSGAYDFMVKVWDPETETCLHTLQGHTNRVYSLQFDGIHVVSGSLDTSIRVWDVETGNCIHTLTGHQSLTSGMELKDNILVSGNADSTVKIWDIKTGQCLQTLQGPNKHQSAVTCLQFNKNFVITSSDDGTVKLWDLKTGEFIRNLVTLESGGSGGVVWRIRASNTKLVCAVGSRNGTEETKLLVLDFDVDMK
T2 sequence (P63208 2-163 partner): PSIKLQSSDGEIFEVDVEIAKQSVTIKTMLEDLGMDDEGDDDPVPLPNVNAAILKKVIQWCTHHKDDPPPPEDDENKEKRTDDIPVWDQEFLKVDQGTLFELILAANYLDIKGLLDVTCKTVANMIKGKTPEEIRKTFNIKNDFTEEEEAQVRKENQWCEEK
T1 sequence (Q969H0 64-707 R505L): as the sequence (Q969H0 64-707 R505L) above
T1 sequence (P63208 2-163 partner): as the sequence (P63208 2-163 partner) above

Emax [1] | EC50 [1, 4] | EC50 [2, 5] | Emax [2] | EC50 [2, 6] | activation at 26.1 µM [2, 7] | activation at 26.1 µM [2, 8] | EC50 [1, 9] | RLFBW7 ACT DCSRUN1 Hill Slope [1] | Compound | CyCEP ACT DCSRUN2 Averaged Max % Response [3] | EC50 [3]
-0.274% | > 65.3 µM | 18 µM | 23.1% | > 65.3 µM | 5.69 ± 0.17% | 7.62% | 0.0059 µM | – | COc1ccccc1-c1ccc(N2CCN(C(=O)COc3ccccc3)CC2)nn1 [SR-01000920770-1] | 0.32% | > 65.3 µM
0.2% | > 65.3 µM | 31.9 µM | 17.5% | > 65.3 µM | 2.33 ± 0.59% | 2.62% | 24.5 µM | – | O=C(Nc1ccc2c(c1)OCO2)N1CCC(c2nnc(C3CC3)s2)CC1 [SR-01000922885-1] | 0.08% | > 65.3 µM
0.09% | > 65.3 µM | 16.5 µM | 18.3% | > 65.3 µM | 4.96 ± 0.03% | 3.13% | 22.5 µM | – | Cc1cccc(NC(=O)N2CCC(c3nnc(C4CC4)s3)CC2)c1 [SR-01000922889-1] | 0.23% | > 65.3 µM

Further lines, the molecule ahead of its results:

Compound | Emax [1] | EC50 [1, 4] | EC50 [2, 5] | Emax [2] | EC50 [2, 6] | activation at 26.1 µM [2, 7] | activation at 26.1 µM [2, 8] | EC50 [1, 9] | RLFBW7 ACT DCSRUN1 Hill Slope [1] | CyCEP ACT DCSRUN2 Averaged Max % Response [3] | EC50 [3]
CCCCCCCC(=O)Nc1ccc(C(=O)Nc2ccc(O)c(C(=O)O)c2)cc1 [SR-01000507444-1] | 1.89% | > 49.3 µM | 5.7 µM | 13.7% | > 49.3 µM | 4.18 ± 0.65% | 4.07% | – | – | 2.05% | > 49.3 µM
COc1ccc(SCC(=O)NNC(=S)Nc2ccccc2)cc1 [SR-01000526835-1] | 2.56% | > 56.6 µM | 7.3 µM | 10.1% | > 56.6 µM | 2.1 ± 0.29% | 2.07% | 7.5 µM | – | 2.80% | > 56.6 µM
CCOC(=O)C1=CN(Cc2ccc(OC)cc2)C=C(C(=O)OCC)C1c1ccccc1OCc1ccccc1 [SR-01000587933-1] | 3.64% | – | – | 12% | – | 2.81 ± 0.04% | 2.16% | – | – | 2.45% | > 44.2 µM
Cn1nc(CC(=O)Nc2ccc(F)c(Cl)c2)c2ccccc2c1=O [SR-01000589827-1] | -0.247% | > 85 µM | 0.698 µM | 7.32% | > 85 µM | 2.48 ± 0.45% | 1.93% | – | – | 0.04% | > 85 µM
CSc1ccccc1C(=O)Nc1nc2nc(C)cc(C)c2s1 [SR-01000917298-1] | 83% | 29.9 µM | 53.6 µM | 23.5% | > 65.3 µM | 3.94 ± 9.71% | 8.85% | 28.6 µM | 6.64 | 0.18% | > 65.3 µM
